Results on 12 molecules are retold here after ChEMBL document CHEMBL1201862, “PubChem BioAssay data set” (2004).

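Method: 48-hour compound exposure of cells in 96-well plates, five concentrations, linear interpolation of endpoints. GI50 marks 50% less growth.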 Active and inactive are the calls of the source. Cut-off read from the data, not from the text of the source: active = GI50 up to about 1.1 µM and inactive = higher. Bounds are passed on as bounds.

Holding throughout (experiment): NCI anticancer screen, dose series, 48 h
The subject of assay [1] is NCI-H226.
For assay [2], the system named is OVCAR-4.
Assay [3] relates to SNB-75.
For assay [4], the system named is HL-60.
Assay [5] deals with OVCAR-5.
In assay [6] the test system is SF-539.
In assay [7] the test system is COLO 205.
Assay [8] has as its system U-251.
For assay [9], the system named is SK-OV-3.
Assay [10] has as its system HT-29.
In assay [11] the test system is SF-268.
In assay [12] the test system is A549.
Assay [13] concerns M14.
The subject of assay [14] is UACC-62.
In assay [15] the test system is SK-MEL-28.
The subject of assay [16] is IGROV-1.
For assay [17], the system named is UO-31.
Assay [18] relates to RPMI-8226.
Assay [19] relates to SK-MEL-2.
Assay [20] has as its system A498.

For the molecule `O=C(CCC(NC(=O)OCc1ccccc1)C(=O)OCc1ccccc1)Nc1cccc(OCc2ccccc2)c1` (stereo not given), the GI50 was 29.1 µM (inactive) in assay [1]; 30.2 µM (inactive) in [2]; 35.6 µM (inactive) in assay [3]; 15.4 µM (inactive) in [4]; 28.6 µM (inactive) in assay [5]; 19.2 µM (inactive) in assay [6]. In addition, the GI50 in assay [7] is 15.7 µM (inactive); in assay [8] it was 30.3 µM (inactive); in assay [9], 67.3 µM (inactive); in [10], 29.9 µM (inactive); in [11], 28.6 µM (inactive); in [12], 35.7 µM (inactive). Further, the GI50 in assay [13] was 20.4 µM (inactive); in assay [14], 32.8 µM (inactive); in [15], 40.4 µM (inactive); in assay [16], 30.3 µM (inactive).

Turning to `CN(C)CC(CO)(CN(C)C)CN(C)C`, the GI50 in [1], in [2], in assay [3], in [4], in assay [5] and in [6] was > 100 µM (inactive) in each case. Further, the GI50 in assay [17], in assay [7], in assay [8], in [9], in assay [10] and in assay [11] was > 100 µM (inactive) each time. Further, the GI50 in assay [12], in assay [18], in [13], in assay [14], in assay [15] and in assay [16] was > 100 µM (inactive) each time.

As for `Cc1ccccc1NC(=O)CSc1nnc(Cc2ccccc2)o1`, the GI50 in [1], in assay [2], in assay [3], in assay [5], in assay [6] and in assay [17] was > 100 µM (inactive) each time. The GI50 in [7], in [8], in assay [9], in assay [19], in assay [10] and in assay [11] was > 100 µM (inactive) in each case. In addition, the GI50 in assay [12], in assay [18], in assay [13], in assay [14], in assay [15] and in assay [16] was > 100 µM (inactive) each time.

Take `O=c1[nH]cnc2c(COCCCO)c[nH]c12`: the GI50 was > 100 µM (inactive) in assay [3]; > 100 µM (inactive) in assay [4]; 61.5 µM (inactive) in assay [5]; > 100 µM (inactive) in assay [17]; > 100 µM (inactive) in [7]; > 100 µM (inactive) in assay [8]. Further, the GI50 in assay [9], in assay [19], in assay [10], in assay [11], in assay [12] and in assay [18] was > 100 µM (inactive) in each case. The GI50 in assay [13], in assay [14], in assay [15] and in [16] was > 100 µM (inactive) each time.

On to `COc1c(CC(C)O)c2c3c(CC(C)O)c(OC)c(=O)c4c(O)cc5c(c6c(cc(O)c(c1=O)c62)OCO5)c43` (stereo not given) [CERCOSPORIN], for which the GI50 in [1] is 2.29 µM (inactive); in assay [2], 1.38 µM (inactive); in assay [3], 2.38 µM (inactive); in assay [4], 0.968 µM (active); in [5], 2.88 µM (inactive); in assay [6], 2.13 µM (inactive). Moreover, the GI50 in [17] was 2.14 µM (inactive); in [7], 0.158 µM (active); in [8], 1.72 µM (inactive); in assay [9] it was 4.14 µM (inactive); in assay [19], 1.55 µM (inactive); in assay [10], 0.364 µM (active). The GI50 in assay [11] is 1.81 µM (inactive); in assay [12], 1.65 µM (inactive); in assay [18], 2.1 µM (inactive); in assay [13] it was 1.29 µM (inactive); in assay [14], 1.78 µM (inactive); in assay [15], 1.86 µM (inactive). Also, the GI50 in assay [16] was 1.69 µM (inactive).

As to `c1ccc(/N=C(\N2CCCCC2)N(CCN2CCCCC2)c2ccccc2)cc1`, the GI50 in [1] is 2.62 µM (inactive); in assay [2], 1.2 µM (inactive); in assay [3] it was 2.28 µM (inactive); in [4], 0.277 µM (active); in assay [5], 1.82 µM (inactive); in assay [17] it was 1.68 µM (inactive). The GI50 in assay [7] was 0.658 µM (active); in [8] it was 1.39 µM (inactive); in assay [9] it was 1.65 µM (inactive); in assay [19] it was 1.76 µM (inactive); in assay [10], 0.141 µM (active); in assay [12] it was 2.11 µM (inactive). The GI50 in [18] is 0.192 µM (active); in [13] it was 1.5 µM (inactive); in [15] it was 1.99 µM (inactive); in assay [16] it was 0.396 µM (active).

As for `COc1ccc2c(c1)[n+]([O-])c(C(C)=O)c(C)[n+]2[O-]`, the GI50 in [1], in assay [2], in assay [4], in assay [5], in [6] and in [17] was > 100 µM (inactive) each time. Also, the GI50 in [7], in assay [8], in assay [9], in assay [19], in [10] and in assay [11] was > 100 µM (inactive) in each case. For the same molecule, the GI50 in [12], in assay [18], in [13], in [14], in assay [15] and in assay [16] was > 100 µM (inactive) throughout.

In the case of `Clc1cc(Cl)cc(C2SCc3nc4ccccc4n32)c1` (stereo not given), the GI50 is 19.9 µM (inactive) in assay [1]; 43.4 µM (inactive) in [3]; 4.31 µM (inactive) in [4]; 18.1 µM (inactive) in assay [5]; 11.1 µM (inactive) in assay [6]; 19.3 µM (inactive) in assay [17]. Also, the GI50 in assay [7] is 18.2 µM (inactive); in [8] it was 14 µM (inactive); in assay [9], 22.8 µM (inactive); in assay [19], 17.6 µM (inactive); in assay [10], 12 µM (inactive); in [11] it was 20.4 µM (inactive). The GI50 in assay [12] was 19.6 µM (inactive); in assay [18], 11.5 µM (inactive); in assay [14], 21.5 µM (inactive); in assay [15] it was 13.8 µM (inactive).

For `CC1(CO)COS(=O)OC1` (stereo not given), the GI50 in assay [1], in assay [2], in assay [3], in assay [17], in assay [7] and in assay [8] was > 100 µM (inactive) each time. Also, the GI50 in [9] is > 100 µM (inactive); in assay [10] it was > 100 µM (inactive); in assay [20] it was 1.89 µM (inactive); in [11] it was > 100 µM (inactive); in assay [12], > 100 µM (inactive); in assay [15], > 100 µM (inactive).

For the molecule `COc1nc2c(N3CCCC3)nc(N3CCNCC3)nc2nc1NCc1ccccc1`, the GI50 in [1] was 2.34 µM (inactive); in assay [2], 3.03 µM (inactive); in [3], 1.44 µM (inactive); in [4] it was 1.68 µM (inactive); in assay [5] it was 2.61 µM (inactive); in [6], 1.75 µM (inactive). The GI50 in [17] was 1.48 µM (inactive); in [7], 0.524 µM (active); in [8], 1.35 µM (inactive); in assay [9], 2.05 µM (inactive); in assay [19], 1.66 µM (inactive); in assay [10], 1.07 µM (active). The GI50 is 2.03 µM (inactive) in assay [11]; 2.01 µM (inactive) in assay [12]; 1.69 µM (inactive) in assay [18]; 1.65 µM (inactive) in assay [13]; 1.86 µM (inactive) in [14]; 2.01 µM (inactive) in assay [15]. Moreover, the GI50 in [16] was 2.03 µM (inactive).

On to `CCCCCCC1NN(C(C)=O)C(CCCCCC)NN1C(C)=O` (stereo not given), for which the GI50 in assay [1] was > 100 µM (inactive); in assay [2] it was > 100 µM (inactive); in assay [3], > 100 µM (inactive); in assay [4] it was 46.5 µM (inactive); in assay [5], > 100 µM (inactive); in assay [6], > 100 µM (inactive). Also, the GI50 in [17], in assay [7], in assay [8], in assay [9], in assay [19] and in assay [10] was > 100 µM (inactive) in each case. Also, the GI50 is 24 µM (inactive) in assay [18], > 100 µM (inactive) in assay [13], > 100 µM (inactive) in assay [14] and > 100 µM (inactive) in assay [16].

Consider `COc1ccc2c(c1)-c1oc3ccccc3c(=O)c1CO2`, for which the GI50 is 50.4 µM (inactive) in assay [1]; 31.6 µM (inactive) in assay [3]; > 100 µM (inactive) in [5]; 35.5 µM (inactive) in assay [6]; 22.9 µM (inactive) in assay [17]; 31.4 µM (inactive) in assay [7]. Also, the GI50 in assay [8] was 28.7 µM (inactive); in assay [9] it was 35.4 µM (inactive); in assay [19] it was 26.3 µM (inactive); in assay [10], 31.1 µM (inactive); in assay [11], 25 µM (inactive); in assay [12], 43 µM (inactive). The GI50 in assay [18] is 20.8 µM (inactive); in assay [13] it was 57.7 µM (inactive); in [14], 38.1 µM (inactive); in assay [16] it was 25.7 µM (inactive).
